Measurements published in article PMC8634379, “From the Design to the In Vivo Evaluation of Benzohomoadamantane-Derived Soluble Epoxide Hydrolase Inhibitors for the Treatment of Acute Pancreatitis” (Journal of Medicinal Chemistry, 2021).
Where “and” joins values, the source holds several entries; their conditions need not be identical. Equal values may be shown once. Read-outs that look alike come from different tables or passages of the source.

How the values were obtained:
CYP 1A2 = biological target: T1, CYP 1A2 (Homo sapiens, UniProt P05177); test: Cytochrome P450 inhibition, fluorescence detection; assay type: in vitro ADME; conditions: at 10 μM
T1 sequence (P05177 1-516): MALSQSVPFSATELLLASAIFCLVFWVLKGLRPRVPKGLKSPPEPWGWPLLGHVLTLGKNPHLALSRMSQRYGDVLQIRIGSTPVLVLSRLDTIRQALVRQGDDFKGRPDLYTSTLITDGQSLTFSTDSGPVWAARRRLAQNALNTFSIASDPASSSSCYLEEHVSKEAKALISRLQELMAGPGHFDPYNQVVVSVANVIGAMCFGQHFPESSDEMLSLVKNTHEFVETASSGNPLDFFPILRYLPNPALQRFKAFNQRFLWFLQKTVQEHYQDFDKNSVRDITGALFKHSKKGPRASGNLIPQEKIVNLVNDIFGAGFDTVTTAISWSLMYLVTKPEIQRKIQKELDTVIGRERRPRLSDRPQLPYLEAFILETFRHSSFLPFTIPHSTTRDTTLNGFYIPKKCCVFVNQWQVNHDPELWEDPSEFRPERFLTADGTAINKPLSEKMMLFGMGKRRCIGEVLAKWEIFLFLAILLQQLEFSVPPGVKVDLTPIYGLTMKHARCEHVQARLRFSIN

CYP 2C19 = CYP 2C19 (Homo sapiens, UniProt P33261); test: Cytochrome P450 inhibition, fluorescence detection; assay type: in vitro ADME
CYP 3A4 = CYP 3A4 (Homo sapiens, UniProt P08684); test: Cytochrome P450 inhibition, fluorescence detection; assay type: in vitro ADME; conditions: at 10 μM; for CYP 3A4 (BFC) inhibition: substrate benzyloxytrifluoromethylcoumarin; for CYP 3A4 (DBF) inhibition: substrate dibenzylfluorescein
Experimental: The objective of this study was to screen the inhibition potential of the compounds using recombinant human cytochrome P450 enzymes CYP3A4 (BFC and DBF substrates) and probe substrates with fluorescent detection. Incubations were conducted in a 200 μL volume in 96-well microtiter plates (COSTAR 3915). The addition of the mixture buffer-cofactor (KH2PO4 buffer, 1.3 mM NADP, 3.3 mM MgCl2, 0.4 U/mL glucose-6-phosphate dehydrogenase), control supersomes, the Standard inhibitor Ketoconazole (Sigma K1003), and previously diluted compounds to plates was carried out by a liquid handling station (Zephyr Caliper). The plate was then preincubated at 37 °C for 5 min in a 100 μL volume, and reaction was initiated by the addition of a prewarmed enzyme/substrate (E/S) mix. The E/S mix contained buffer (KH2PO4), enzyme (CYP), substrate 7-benzyloxytrifluoromethyl coumarin (7-BFC), and dibenzylfluorescein (DBF) in a reaction volume of 200 μL. Reactions were terminated after various times depending on the substrate by addition of STOP solution (ACN/TrisHCl 0.5 M 80:20 (BFC) or 2 N NaOH for CYP3A4 (DBF). Fluorescence per well was measured using a fluorescence plate reader (Tecan M1000 pro) and percentage of inhibition was calculated.

hERG potassium channel = biological target: T2, hERG potassium channel (Homo sapiens, UniProt Q12809); test: hERG inhibition assay (Fluxor potassium ion channel kit, transfected CHO cells); assay type: cell-based; conditions: at 10 μM
T2 construct: expressed in transfected cells; host or cells: CHO
Experimental: The assay was carried out at a CHO cell line transfected with the hERG potassium channel. 72 h before the assay, 2500 cells were seeded on a 384-well black plate (Greiner 781091). The cell line was maintained at 37 °C in a 5% CO2 atmosphere for 24 h and at 30 °C in a 5% CO2 atmosphere for 48 h plus. hERG activity was measured by using the FluxorTM Potassium Ion Chanel Assay Kit (Thermo Fisher F10016). Medium was replaced for 20 μL of loading buffer and the cells were incubated for 60 min at RT, protected from direct light. After incubation, the loading buffer was replaced for the assay buffer and the compounds were incubated for 30 min at RT. 5 μL of a stimulus buffer was added to each well and the fluorescence was read (λex = 490 nm, λem = 525 nm) using an imaging plate reader system (FDSS7000EX, Hamamatsu) every second after the establishment of a baseline line.

CYP 2D6 = CYP 2D6 (Homo sapiens, UniProt P10635); test: Cytochrome P450 inhibition, fluorescence detection; assay type: in vitro ADME; conditions: at 10 μM
[1] = Pharmacokinetic study after IP administration; assay type: in vivo, male C57BL/6 mice; conditions: for AUC(0-t) / Cl / Cmax / Tmax / Vd / half-life / AUC(0-inf): ip; for AUC(0-inf): AUCINF
Experimental: During the experimental procedure, animals were identified with a permanent marker (tail code numbers). […] They underwent a period of at least 5 days of observation and acclimatization between the date of arrival and the start of the procedure. […] Diet was analyzed by the manufacturer to detect possible contaminants. Tap water was supplied by CASSA (Servei d’Aigües de Sabadell) and was provided to the animals by bottles ad libitum. […] Ministry of Agriculture, Livestock, and Fishing of the autonomous government of Catalonia, Spain. […] Formulations were prepared on the day of the study. […] Animals were weighed before each administration to adjust the required volume. […] Blood samples (0.5–0.8 mL) were collected from anesthetized animals with isoflurane by cava vein puncture in tubes containing K2-EDTA 5%. Blood samples were centrifuged at 10,000 rpm for 5 min to obtain plasma that was stored at −20 °C until analysis. Analytical measurements were performed by LC–MS/MS. Pharmacokinetics parameters were calculated with Phoenix 64 (WinNonlin).

CYP 2C9 = CYP 2C9 (Homo sapiens, UniProt P11712); test: Cytochrome P450 inhibition, fluorescence detection; assay type: in vitro ADME; conditions: at 10 μM
[2] = IC50 calculated for >50% inhibition at 10 μM
[3] = male, C57BL/6, mouse, in vivo, 3 mg/kg

CYP 2C19, sequence (P33261 whole entry): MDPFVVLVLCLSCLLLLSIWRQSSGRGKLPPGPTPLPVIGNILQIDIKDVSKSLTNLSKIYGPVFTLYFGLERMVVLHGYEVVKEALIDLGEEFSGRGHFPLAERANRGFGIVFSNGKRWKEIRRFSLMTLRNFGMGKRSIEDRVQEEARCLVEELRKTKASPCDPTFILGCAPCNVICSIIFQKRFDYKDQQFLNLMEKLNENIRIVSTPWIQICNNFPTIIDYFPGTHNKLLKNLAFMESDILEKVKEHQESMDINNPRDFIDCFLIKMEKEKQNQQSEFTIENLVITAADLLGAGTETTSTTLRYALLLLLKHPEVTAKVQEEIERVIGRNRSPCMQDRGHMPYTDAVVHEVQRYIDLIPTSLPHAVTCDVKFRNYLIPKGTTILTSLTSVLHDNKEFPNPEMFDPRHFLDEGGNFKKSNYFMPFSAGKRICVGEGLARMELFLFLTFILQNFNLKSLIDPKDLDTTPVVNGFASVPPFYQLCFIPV
CYP 3A4, sequence (P08684 whole entry): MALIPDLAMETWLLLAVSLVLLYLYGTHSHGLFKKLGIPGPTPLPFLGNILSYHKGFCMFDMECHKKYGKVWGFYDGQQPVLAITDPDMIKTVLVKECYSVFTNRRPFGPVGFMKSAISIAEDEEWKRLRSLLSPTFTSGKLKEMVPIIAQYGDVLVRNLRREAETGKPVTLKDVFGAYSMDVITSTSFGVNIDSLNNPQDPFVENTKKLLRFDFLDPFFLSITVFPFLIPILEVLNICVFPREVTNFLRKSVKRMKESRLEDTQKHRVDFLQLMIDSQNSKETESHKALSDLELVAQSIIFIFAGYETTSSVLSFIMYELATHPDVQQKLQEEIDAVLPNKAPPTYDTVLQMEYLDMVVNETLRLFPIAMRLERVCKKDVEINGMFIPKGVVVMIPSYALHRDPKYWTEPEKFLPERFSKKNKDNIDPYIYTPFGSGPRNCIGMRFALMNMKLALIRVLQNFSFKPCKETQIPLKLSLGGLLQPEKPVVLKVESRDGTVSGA
CYP 2D6, sequence (P10635 whole entry): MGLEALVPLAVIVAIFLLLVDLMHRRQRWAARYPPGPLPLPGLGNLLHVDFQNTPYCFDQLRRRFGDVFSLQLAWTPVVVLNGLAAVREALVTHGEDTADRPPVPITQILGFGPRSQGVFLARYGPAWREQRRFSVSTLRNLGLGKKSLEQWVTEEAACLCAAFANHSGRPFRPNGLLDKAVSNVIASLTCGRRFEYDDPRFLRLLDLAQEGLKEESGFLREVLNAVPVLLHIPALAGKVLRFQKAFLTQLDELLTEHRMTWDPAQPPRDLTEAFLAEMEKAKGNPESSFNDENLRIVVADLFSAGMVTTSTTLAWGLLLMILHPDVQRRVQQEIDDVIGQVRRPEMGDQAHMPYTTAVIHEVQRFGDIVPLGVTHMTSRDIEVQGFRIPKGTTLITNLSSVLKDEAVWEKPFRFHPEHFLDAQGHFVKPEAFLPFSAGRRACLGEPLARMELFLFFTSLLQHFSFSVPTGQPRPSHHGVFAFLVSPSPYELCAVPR
CYP 2C9, sequence (P11712 whole entry): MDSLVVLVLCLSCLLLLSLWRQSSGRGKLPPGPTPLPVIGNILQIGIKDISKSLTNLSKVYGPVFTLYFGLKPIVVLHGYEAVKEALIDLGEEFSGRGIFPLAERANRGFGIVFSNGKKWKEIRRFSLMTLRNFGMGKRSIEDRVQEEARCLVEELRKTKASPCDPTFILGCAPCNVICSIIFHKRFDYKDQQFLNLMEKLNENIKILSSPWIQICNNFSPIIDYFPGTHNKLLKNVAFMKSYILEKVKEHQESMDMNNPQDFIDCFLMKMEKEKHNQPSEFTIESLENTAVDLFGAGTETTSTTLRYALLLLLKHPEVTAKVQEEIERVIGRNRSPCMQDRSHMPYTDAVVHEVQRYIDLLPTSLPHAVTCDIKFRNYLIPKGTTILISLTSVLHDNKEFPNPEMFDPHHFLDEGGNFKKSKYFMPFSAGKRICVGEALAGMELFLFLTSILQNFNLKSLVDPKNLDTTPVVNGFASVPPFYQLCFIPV
T2 sequence (Q12809 whole entry): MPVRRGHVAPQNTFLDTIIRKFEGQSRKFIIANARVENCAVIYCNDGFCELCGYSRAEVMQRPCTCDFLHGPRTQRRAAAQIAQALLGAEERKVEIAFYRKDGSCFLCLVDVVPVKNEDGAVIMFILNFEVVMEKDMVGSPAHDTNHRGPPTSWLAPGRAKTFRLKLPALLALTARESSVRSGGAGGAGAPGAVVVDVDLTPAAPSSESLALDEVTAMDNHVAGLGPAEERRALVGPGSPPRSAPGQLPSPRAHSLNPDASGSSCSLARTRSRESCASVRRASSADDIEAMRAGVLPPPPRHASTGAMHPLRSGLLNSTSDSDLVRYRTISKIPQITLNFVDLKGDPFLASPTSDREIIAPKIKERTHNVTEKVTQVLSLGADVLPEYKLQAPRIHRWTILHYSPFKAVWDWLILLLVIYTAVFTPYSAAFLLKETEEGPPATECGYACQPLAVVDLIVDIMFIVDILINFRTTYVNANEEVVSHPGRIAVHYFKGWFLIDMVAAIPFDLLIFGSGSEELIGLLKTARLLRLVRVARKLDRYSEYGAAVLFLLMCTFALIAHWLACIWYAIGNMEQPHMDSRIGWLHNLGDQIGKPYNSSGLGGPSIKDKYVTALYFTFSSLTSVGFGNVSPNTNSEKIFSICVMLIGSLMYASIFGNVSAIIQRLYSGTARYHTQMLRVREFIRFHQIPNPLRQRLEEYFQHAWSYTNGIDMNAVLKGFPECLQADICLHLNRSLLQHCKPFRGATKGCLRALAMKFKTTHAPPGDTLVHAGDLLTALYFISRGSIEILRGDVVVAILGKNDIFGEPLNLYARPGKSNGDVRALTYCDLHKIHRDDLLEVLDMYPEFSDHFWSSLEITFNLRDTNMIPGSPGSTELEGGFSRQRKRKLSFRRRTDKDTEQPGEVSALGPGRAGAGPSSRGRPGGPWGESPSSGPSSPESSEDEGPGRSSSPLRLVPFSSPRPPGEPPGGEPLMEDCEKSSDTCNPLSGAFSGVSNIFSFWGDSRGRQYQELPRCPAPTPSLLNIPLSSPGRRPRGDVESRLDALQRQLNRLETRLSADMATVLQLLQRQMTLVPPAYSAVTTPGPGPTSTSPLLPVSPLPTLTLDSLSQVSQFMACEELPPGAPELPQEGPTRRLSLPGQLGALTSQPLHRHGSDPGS

With `CC12CC3CC(NC(=O)N[C@H]4CC[C@H](Oc5ccc(C(=O)O)cc5)CC4)(CC(C1)c1ccccc13)C2` [Compound 20, 4-[((1r,4r)-4-(3-(9-Methyl-5,6,8,9,10,11-Hexahydro-7H-5,9:7,11-dimethanobenzo[9]annulen-7-yl)ureido)cyclohexyl)oxy]benzoic Acid] the “CYP 1A2 inhibition” value (CYP 1A2) was 1 ± 2%, the IC50 (CYP 2C19) was about 2000 nM and the “fold more potency inhibiting the sEH than CYP2C19” value (CYP 2C19) was 2000 fold. For the same compound, the IC50 (CYP 2C19; [2]) was 1900 nM, the “CYP 3A4 (BFC) inhibition” value (CYP 3A4) was 2 ± 2% and the “CYP 3A4 (DBF) inhibition” value (CYP 3A4) was 14 ± 1%. For the same compound, the hERG channel inhibition (hERG potassium channel) was 4%, the “CYP 2D6 inhibition” value (CYP 2D6) was 1 ± 1% and the “Total Concentration in mouse plasma, individual mice” value (shortened to “Total Concentration in mouse plasma”) ([1]; male, C57BL/6, mouse, in vivo, 24 h) was 0 ng/mL. The AUC(0-t) [1, 3] was 2260 ng·h/mL, the Cl [1, 3] was 21.5 mL/min/kg and the Cmax [1, 3] was 1610 ng/mL. The Tmax [1, 3] was 0.5 h, the Vd [1, 3] was 2.18 L/kg and the half-life [1, 3] was 1.17 h. The AUC(0-inf) [1, 3] was 2320 ng·h/mL and the “CYP 2C9 inhibition” value (CYP 2C9) was 17 ± 3%.

For `O=C(NC12CC3CC(Cl)(CC(C1)c1ccccc13)C2)N[C@H]1CC[C@H](Oc2ccc(C(=O)O)cc2)CC1` [Compound 22, 4-[((1r,4r)-4-(3-(9-Chloro-5,6,8,9,10,11-hexahydro-7H-5,9:7,11-dimethanobenzo[9]annulen-7-yl)ureido)cyclohexyl)oxy]benzoic Acid], the “CYP 1A2 inhibition” value (CYP 1A2) was 14 ± 4%, the IC50 (CYP 2C19) was about 2000 nM and the IC50 (CYP 2C19; [2]) was 2200 nM. The “CYP 3A4 (BFC) inhibition” value (CYP 3A4) was 1 ± 2%, the “CYP 3A4 (DBF) inhibition” value (CYP 3A4) was 52 ± 4% and the hERG channel inhibition (hERG potassium channel) was 44%. The “CYP 2D6 inhibition” value (CYP 2D6) was 11 ± 3%, the “Total Concentration in mouse plasma” value ([1]; 3 mg/kg ip, 0.25 h (5400 for 20 excluded as outlier)) was 151 ng/mL and 291 ng/mL and 622 ng/mL and the “Total Concentration in mouse plasma” value ([1]; 3 mg/kg ip, 0.5 h) was 1520 ng/mL and 1980 ng/mL. For the same compound, the “Total Concentration in mouse plasma” value ([1]; 3 mg/kg ip, 1 h) was 1100 ng/mL and 2640 ng/mL and 600 ng/mL, the “Total Concentration in mouse plasma” value ([1]; 3 mg/kg ip, 2 h) was 2440.0 ng/mL and 2640.0 ng/mL and 5670.0 ng/mL and the “Total Concentration in mouse plasma” value ([1]; 3 mg/kg ip, 4 h) was 1960.0 ng/mL and 1350.0 ng/mL. The “Total Concentration in mouse plasma” value ([1]; 3 mg/kg ip, 6 h) was 1160 ng/mL and 734.0 ng/mL and 1530 ng/mL, the “Total Concentration in mouse plasma” value ([1]; 3 mg/kg ip, 24 h) was 181.0 ng/mL and 40.6 ng/mL and 92.3 ng/mL and the concentration at 0.25 h ([1]; male, C57BL/6, mouse, in vivo, 3 mg/kg, 3 mg/kg ip, 0.25 h, read-out: Mean concentration in mouse plasma) was 355 ng/mL. It also gave a concentration at 0.5 h ([1]; male, C57BL/6, mouse, in vivo, 3 mg/kg, 3 mg/kg ip, 0.5 h, read-out: Mean concentration in mouse plasma) of 1620 ng/mL, a concentration at 0.5 h ([1]; male, C57BL/6, mouse, in vivo, 3 mg/kg, 3 mg/kg ip, 0.5 h, read-out: Total Concentration in mouse plasma, individual mice) of 1350 ng/mL and a concentration at 1 h ([1]; male, C57BL/6, mouse, in vivo, 3 mg/kg, 3 mg/kg ip, 1 h, read-out: Mean concentration in mouse plasma) of 1450 ng/mL. For the same compound, the concentration at 2 h ([1]; male, C57BL/6, mouse, in vivo, 3 mg/kg, 3 mg/kg ip, 2 h, read-out: Mean concentration in mouse plasma) was 3580 ng/mL, the concentration at 4 h ([1]; male, C57BL/6, mouse, in vivo, 3 mg/kg, 3 mg/kg ip, 4 h, read-out: Mean concentration in mouse plasma) was 1520 ng/mL and the concentration at 4 h ([1]; male, C57BL/6, mouse, in vivo, 3 mg/kg, 3 mg/kg ip, 4 h, read-out: Total Concentration in mouse plasma, individual mice) was 1240 ng/mL. For the same compound, the concentration at 6 h ([1]; male, C57BL/6, mouse, in vivo, 3 mg/kg, 3 mg/kg ip, 6 h, read-out: Mean concentration in mouse plasma) was 1140 ng/mL, the concentration at 24 h ([1]; male, C57BL/6, mouse, in vivo, 3 mg/kg, 3 mg/kg ip, 24 h, read-out: Mean concentration in mouse plasma) was 105 ng/mL and the AUC(0-t) [1, 3] was 22500 ng·h/mL. It also gave a Cl [1, 3] of 2.17 mL/min/kg, a Cmax [1, 3] of 3580 ng/mL and a Tmax [1, 3] of 2 h. For the same compound, the Vd [1, 3] was 0.96 L/kg, the half-life [1, 3] was 5.2 h and the AUC(0-inf) [1, 3] was 23300 ng·h/mL. For the same compound, the “CYP 2C9 inhibition” value (CYP 2C9) was 31 ± 3%.
